Data from patent US11654183B2 (INTARCIA THERAPEUTICS, INC., priority 2017, dated 2023).
Where two headings read alike, the source gives them in different places.

What was measured:
[1] = compared to OC alone, cited from earlier work; for decrease of Cmax: repeated daily doses of OC given 30 minutes after BYETTA (10 mcg BID), healthy female subjects; for decrease of mean Cmax: repeated daily doses of OC one hour prior to BYETTA
[2] = Crossover study of ITCA 650 on steady-state PK and PD of the combination oral contraceptive Levora; settings: ITCA 650 60 mcg/day, healthy premenopausal women
Procedure: Twenty-eight (28) healthy premenopausal women on a stable regimen of an OC participated in a randomized, double-blind, placebo-controlled, 2-period crossover study. […] The study included a 2-week run-in on Levora and 2 treatment periods of 28 days each. […] Subjects were crossed over to the alternative treatment and procedures were repeated in Period 2. The OC was administered daily through D28 of each period.

[3] = cited from earlier work
[4] = human, in vivo, po
Procedure: APAP, a marker of gastric emptying, was administered on Day (D)1 followed by the cocktail on D2. […] APAP was administered again on D27 and the cocktail on D28.

[5] = 1000 mg acetaminophen elixir given 1 hour after 10 mcg BYETTA injection
[6] = 1000 mg acetaminophen elixir given 2 hours after 10 mcg BYETTA injection
[7] = 1000 mg acetaminophen elixir given 4 hours after 10 mcg BYETTA injection
[8] = 1000 mg acetaminophen elixir given with 10 mcg BYETTA (0 h)
[9] = acetaminophen given 1 hour before BYETTA injection

SMILES | decrease of Cmax [1] [%] | decrease of mean Cmax [1] | effect of ITCA 650 on PK [2] | Tmax [3, 5] [h] | decrease of Cmax [3, 5] [%] | decrease of acetaminophen AUC [3, 5] [%] | Tmax [3, 6] [h] | decrease of Cmax [3, 6] [%] | decrease of acetaminophen AUC [3, 6] [%] | Tmax [3, 7] [h] | decrease of Cmax [3, 7] [%] | decrease of acetaminophen AUC [3, 7] [%] | Tmax [3, 8] [h] | decrease of Cmax [3, 8] [%] | decrease of acetaminophen AUC [3, 8] [%] | AUC change [3, 9] | Cmax change [3, 9] | Tmax change [3, 9] | Tmax ([3]; control period (without BYETTA)) [h] | effect of ITCA 650 on PK of the co-administered drug [4]
C#C[C@]1(O)CC[C@H]2[C@@H]3CCc4cc(O)ccc4[C@H]3CC[C@@]21C [ethinyl estradiol] | 45 | 15% |  |  |  |  |  |  |  |  |  |  |  |  |  |  |  |  |  | 
C#C[C@]1(O)CC[C@H]2[C@@H]3CCC4=CC(=O)CC[C@@H]4[C@H]3CC[C@@]21CC [levonorgestrel] | 27 | not significantly changed | No effect |  |  |  |  |  |  |  |  |  |  |  |  |  |  |  |  | 
CC(=O)Nc1ccc(O)cc1 [acetaminophen] |  |  |  | 4.2 | 56 | 23 | 3.3 | 54 | 24 | 1.6 | 41 | 14 | 0.9 | 37 | 21 | not significantly changed | not significantly changed | not significantly changed | 0.6 | minimal effect
